We go through one molecule from patent US20050203067A1, “Pesticidal compositions and methods” (priority 2003, published 2005).

≈ marks a conversion by molar mass, not a printed value. Where “and” joins values, the source holds several entries; their conditions need not be identical. Identical values can stand only once. Like-named read-outs stand apart in the source and are kept apart here. Where only a bound is given, the exact number is not on record here.

One data set relates to C. elegans (strain N2). The experiment in a line: C. elegans contact assay (NGM-agar, 24-well). Format: in vivo. To be noted: Caenorhabditis elegans, 96 h.
Data set [1] relates to root knot nematode (Meloidogyne incognita). To be noted: in vivo.
The next data set concerns Sclerotinia sclerotiorum. The experiment in a line: microbe, parasite or virus in culture. It counts as cell-based. The note with it: read-out: growth inhibition.
For a further data set, the system named is Fusarium graminearum. Put plainly: microbe, parasite or virus in culture. Format: cell-based. To be noted: read-out: growth inhibition.
The next data set has as its system Alternaria solani. Put plainly: microbe, parasite or virus in culture. The note with it: read-out: growth inhibition. Format: cell-based.
Another data set concerns Botrytis cinerea. The experiment in a line: microbe, parasite or virus in culture. It counts as cell-based. To be noted: read-out: growth inhibition.
Data set [2] deals with C. elegans. Put plainly: C. elegans liquid (well) assay. It counts as in vivo. To be noted: Caenorhabditis elegans, read-out: Well EC50.
For data set [3], the system named is C. elegans. Put plainly: C. elegans agar (plate) assay. Format: in vivo. The note with it: Caenorhabditis elegans, read-out: Plate EC50.
For data set [4], the system named is Meloidogyne incognita J2 larvae. The experiment in a line: Miniaturized greenhouse assay on cucumber seedlings, root gall rating. Format: in vivo.
A further data set concerns tomato plants. To be noted: in vivo.
A further data set deals with several arthropods. The note with it: in vivo.
The subject of the next data set is cucumber seedling. The experiment in a line: Miniaturized greenhouse assay, phytotoxicity rating. The note with it: 200 ppm.

As a reminder, the EC50 is the concentration that produces a half-maximal response. As a reminder, the inhibition is the share of the control response that was lost under treatment. For the molecule `O=S(=O)(F)CCNc1ccc(N=Nc2ccccc2)cc1` [Compound 3746, 2-(4-phenylazo-phenylamino)-ethanesulfonyl fluoride], the EC50 in the data set on C. elegans (strain N2) is 2 µM; with C. elegans [2] it was 6.3 to 12.5 µg/mL (≈ 20.5 to 40.7 µM); in the data set on C. elegans [3], 1.6 µg/mL (≈ 5.21 µM). Also, the “nematode control (gall ratings)” value in data set [1] is “nematode control approaching that of the commercial nematicides fenamiphos (Nemacur)”. For the same molecule, the inhibition at 16.3 µM is less than 25% in the data set with Sclerotinia sclerotiorum (16.3 μM), more than 75% with Fusarium graminearum (16.3 μM), more than 75% in the data set with Alternaria solani (16.3 μM) and more than 75% in the data set on Botrytis cinerea (16.3 μM). Also, the inhibition at 163 µM in the data set on Sclerotinia sclerotiorum (163 μM) was more than 75%. Moreover, the inhibition at 1.63 µM in the data set with Fusarium graminearum (1.63 μM), with Alternaria solani (1.63 μM) and in the data set with Botrytis cinerea (1.63 μM) was less than 25% throughout. The “Gall 40 (gall rating)” value in data set [4] (40 ppm) was 1.33 and 2.00. Moreover, the “Gall 200 (gall rating)” value in [4] (200 ppm) stood at 0.00. In addition, the “phytotoxicity (root weights)” value in the data set on tomato plants was “no phytoxicity”. Moreover, the “Result (arthropod toxicity)” value in the data set on Beet army worm (2500 μM) is listed as “No effect”; with Beet army worm (25000 μM) it was “Lethal”; in the data set on Corn ear worm (2500 μM), “Non-effect”; in the data set on Corn ear worm (25000 μM), “Lethal”. The toxicity to arthropods result in the data set with several arthropods is on record as “not toxic”. Besides, the “toxicity to fungal species” value with various fungal species is “Low to moderate toxicity”. The “Ptox 200 (phytotoxicity rating)” value with cucumber seedling is 3.00 and 2.67.
